Results on 3 compounds are retold here after US20110092529A1, “1,2,4-Triazole Derivatives and Their Use as Oxytocin Antagonists” (Pfizer Inc., priority 2005, published 2011).

This assay deals with T1, oxytocin receptor (CHO-OTR/NFAT-β-Lactamase cells) (Homo sapiens, UniProt P30559).
T1 construct: expressed in transfected cells; host or cells: CHO (CHO-OTR line carrying an NFAT-β-lactamase reporter)
T1 sequence (P30559 1-389): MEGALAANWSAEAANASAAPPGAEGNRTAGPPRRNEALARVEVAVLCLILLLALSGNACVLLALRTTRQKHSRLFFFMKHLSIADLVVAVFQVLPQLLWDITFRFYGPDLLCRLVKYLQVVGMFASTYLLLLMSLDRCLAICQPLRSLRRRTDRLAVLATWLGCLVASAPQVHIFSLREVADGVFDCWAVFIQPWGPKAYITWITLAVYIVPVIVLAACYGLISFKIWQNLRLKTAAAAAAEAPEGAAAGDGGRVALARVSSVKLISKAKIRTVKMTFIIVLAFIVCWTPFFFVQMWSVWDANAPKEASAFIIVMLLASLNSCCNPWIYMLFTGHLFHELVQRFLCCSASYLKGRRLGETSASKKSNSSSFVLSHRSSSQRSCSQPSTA
Kind of assay: Oxytocin Receptor Beta-Lactamase Assay. It is filed as cell-based. As to conditions: oxytocin stimulation 4 hours, read-out: oxytocin antagonist activity, expressed as a Ki value. The method, then: A suitable assay for determining the oxytocin antagonist activity of a compound is detailed herein below.
Oxytocin Receptor Beta-Lactamase Assay
Cells used are CHO-OTR/NFAT-β-Lactamase. The NFAT-β-lactamase expression construct was transfected into the CHO-OTR cell line and clonal populations were isolated via fluorescence activated cell sorting (FACS). An appropriate clone was selected to develop the assay.
Recovery of cells—A vial of frozen cells is thawed rapidly in 37° C. water bath and the cell suspension transferred into a T225 flask with 50 ml of fresh growth medium and then incubated at 37° C., 5% CO2 in an incubator until the cells adhered to the flask Replace media with 50 ml of fresh growth media the following day.
Culturing cells—CHO—OTR—NFAT-βLactamase cells were grown in growth medium. Cells were harvested when they reached 80-90% confluence removing the medium and washing with pre-warmed PBS. PBS was then removed and Trypsin/EDTA added (3 mls for T225 cm^2 flask) before incubating for 5 min in 37° C./5% CO2 incubator. When cells were detached, pre-warmed growth media was added (7 mls for T225 cm^2 flask) and the cells re-suspended and mixed gently by pipetting to achieve single cell suspension. […]
Cells grown at 80-90% confluence were harvested and counted. […]
Preparation of 1 ml of 6× Loading Buffer with Enhanced Loading Protocol (this requires scale-up according to number of plates to be screened) • 12 μl of solution A (1 mM CCF4-AM in Dry DMSO) was added to 60 μl of solution B (100 mg/ml Pluronic-F127 in DMSO+0.1% Acetic Acid) and vortexed. • The resulting solution was added to 925 μl of solution C (24% w/w PEG400, 18% TR40 v/v in water). • 75 μl of solution D was added (200 mM probenecid in 200 mM NaOH). • 10 μl of 6× Loading Buffer was added to all wells and incubated for 1.5 hrs-2 hrs at room temperature in the dark. • The plates were read using an LJL Analyst, Excitation 405 nm, Emission 450 nm and 530 nm, gain optimal, lagtime 0.40 μs integration, 4 flashes, bottom reading.

With `COc1ccc(-n2c(C)nnc2N2CCC3(CC2)COc2ccccc23)cn1` [Example 1, 1′-[4-(6-methoxypyridin-3-yl)-5-methyl-4H-1,2,4-triazol-3-yl]spiro[1-benzofuran-3,4′-piperidine]], the Ki (commonly a dissociation constant, usually derived from enzyme kinetics or from competition with a known ligand) amounted to 12.9 nM. For `COCc1nnc(N2CCC3(CC2)OCc2cc(F)ccc23)n1-c1ccc(OC)nc1` [Example 6, 5-fluoro-1′-[5-(methoxymethyl)-4-(6-methoxypyridin-3-yl)-4H-1,2,4-triazol-3-yl]-3H-spiro[2-benzofuran-1,4′-piperidine]], the Ki was 11.5 nM. Regarding `COCc1nnc(N2CCC3(CC2)OCc2ccccc23)n1-c1ccc(OC)nc1` [Example 17, 1′-[5-(methoxymethyl)-4-(6-methoxypyridin-3-yl)-4H-1,2,4-triazol-3-yl]-3H-spiro[2-benzofuran-1,4′-piperidine]], the Ki came out at 10.2 nM.
